Test results reported in patent US11324832B2, “Tripartite modulators of endosomal G protein-coupled receptors” (Endosome Therapeutics, Inc., priority 2015, dated 2022).
Where a SMILES comes first, the peptide text is derived from it. Where no end group is shown, it is not given here. [ ]: non-standard residue; d: D form.

Experiments:
[1] = Stability in human cerebrospinal fluid; assay type: in vitro ADME; conditions: Example 2, expected
Method: (§1) To assess stability in cerebrospinal fluid, spantide or Compound 1 (10 μg/ml) was incubated in human cerebrospinal fluid (0-4 h, 37° C.), and then snap frozen. Proteins were precipitated using ACN. To assess stability in the spinal cord, spantide or Compound 1 was injected intrathecally to mice (10 μM, 5 μl, L3/L4). After 3 hours, a spinal cord segment 5 mm on either side the injection site was removed and snap frozen. Tissues were crushed with a glass rod in a mixture of methanol (30 μl) and EDTA/KF (60 μl, 0.1 M EDTA, 4 g/l KF), vortexed and centrifuged to remove lipids. Peptides were extracted from the pellet with 0.5% formic acid in 75% ACN/H2O (100 μl). Samples were analyzed assayed by LC/MS using a Waters Xevo TQ or TQD triple quadrupole mass spectrometer coupled to a Waters UPLC. Peptides were separated by HPLC (Supelco Ascentis Express Peptide ES C18 column, 50×2.1 mm, 2.7 μm) with 0.05% formic acid in H2O and ACN as solvents. Peptides were quantified by comparison to calibration standards (50-50,000 ng/ml).

NK1R = NK1R (Rattus norvegicus, UniProt P14600); assay: SP-stimulated Ca2+ signaling in HEK-NK1R cells, antagonist mode; assay type: cell-based; parameters: Full length and truncated 6312 rat HA-NK1R have been described; expressed in transfected cells; host or cells: HEK293 (transient)
Method: [Ca^2+]i was measured as described (Jensen, D. D. et al., J Biol Chem, 2014, 289, 20283-20294). HEK293 cells transiently expressing HA-NK1R or HA-CLR/Myc-RAMP1 were loaded with Fura2-AM (2 μM).

[2] = Stability in the spinal cord after intrathecal injection to mice; assay type: in vivo, mouse; conditions: 10 μM, 5 μl, spinal cord after 3 hours
Method: as §1

[3] = test system: NK1R-positive neurons in lamina I of the dorsal horn; assay: Cell-attached patch clamp recordings in rat spinal cord slices; assay type: cell-based; conditions: SP 1 μM, 2 min
Method: To evaluate whether NK1R endosomal signaling mediates this sustained activation, cell-attached patch clamp recordings were made from NKiR-positive neurons in lamina I of the dorsal horn in slices of rat spinal cord. […] These findings support a role for NK1R endocytosis in persistent neuronal excitation.
Parasagittal slices (340-400 μm) were prepared using a vibratome from the lumbar region of the rat spinal cord in ice-cold sucrose-based artificial CSF (sACSF) (mM: 100 sucrose, 63 NaCl, 2.5 KCl, 1.2 NaH2PO4, 1.2 MgCl2, 25 glucose, 25 NaHCO3; 95% O2/5% CO2). Slices were transferred to N-Methyl-D-Glucamine (NMDG)-based recovery ACSF (rACSF) (mM: 93 NMDG, 93 HCl, 2.5 KCl, 1.2 NaH2PO4, 30 NaHCO3, 20 HEPES, 25 glucose, 5 Na ascorbate, 2 thiourea, 3 Na pyruvate, 10 MgSO4, 0.5 CaCl2; 95% O2/5% CO2, 15 min, 34° C.). Slices were transferred to normal ACSF (mM: 125 NaCl, 2.5 KCl, 1.25 NaH2PO4, 1.2 MgCl2, 2.5 CaCl2, 25 glucose, 11 NaHCO3; 95% O2/5% CO2) containing 10 μM MK-801 (45 min, 34° C.), then maintained at RT.
Slices of rat spinal cord were transferred to a recording chamber and superfused with normal ACSF (2 ml·min^−1, 36° C.). […] PS2 was not soluble in the low concentrations of DMSO required for electrophysiology. Large, NKiR-positive, presumed nociceptive lamina I neurons were visually identified as described (Imlach, W. L., et al., Molecular Pharmacology, 2015, 88, 460-428). Spontaneous currents were recorded in cell-attached configuration (Multiclamp 700B, Molecular Devices, Sunnyvale, Calif.), sampled at 10 kHz, high pass filtered at 1 Hz, and capacitatively coupled action potential events were analyzed using Axograph X, V 1.4.4 (Axograph). Patch electrodes (resistance 2.5-3.5 MQ) contained KMES-based internal solution (mM: 105 KMES, 20 NaCl, 5 HEPES, 10 BAPTA, 1.5 MgCl2, 4 MgATP, 0.4 NaGTP, 0.1% biocytin; 285-295 mosmol·l^−1) to facilitate subsequent recordings of action potential properties in whole-cell configuration. Recordings were made in the presence of CNQX (6-cyano-7-nitroquinoxaline-2,3-dione) (10 μM; AMPA/kainate receptor antagonist), picrotoxin (100 μM; GABAA receptor antagonist), strychnine (0.5 μM; glycine and acetylcholine receptor antagonist), and AP5 ((2R)-amino-5-phosphonovaleric acid; (2R)-amino-5-phosphonopentanoate) (100 μM; NMDA receptor antagonist) to minimize presynaptic influences on action potential properties. […] Recordings were sampled at 10 kHz and filtered with a high pass filter at 1 Hz and firing rate was measured in two-minute interval bins. At the end of each cell-attached recording, whole-cell recordings were made in current-clamp mode to confirm retention of normal action potential firing. Data were only included in the analysis if cells had action potential amplitudes that were ≥50 mV above threshold to ensure viable neurons were included. Cells were filled with biocytin and sections were processed to confirm NK1R expression by immunofluorescence. […] The firing time was determined as the duration of the response to last action potential. To assess synaptic transmission, whole-cell configuration recordings were made under control conditions or after exposure to Dy4 or Dy4 inact; a bipolar stimulating electrode was placed at the dorsal root entry zone, and electrically-evoked excitatory postsynaptic currents recorded as described (Imlach, W. L., et al., Molecular Pharmacology, 2015, 88, 460-428).

Gαq = assay: BRET of Gαq activation and trafficking in HEK293 cells; assay type: cell-based; conditions: SP 0.1-10 nM, 15 min
Method: Since PKC and cAMP signaling via GPCRs depends on heterotrimeric G-proteins, the capacity of SP to activate G-proteins in endosomes of HEK293 cells was examined. BRET was used to determine the proximity of the NK1R and Gαq to Rab5a and Gγ2. SP (0.1-10 nM) decreased NK1R-RLuc8/KRas-Venus BRET, which mirrored the increase in NK1R-RLuc8/Rab5a-Venus BRET (FIG. 3A, B). […] Immunofluorescence and super-resolution microscopy were used to determine whether Gαq co-localized with the NK1R at the plasma membrane or in endosomes of HEK-NK1R cells. After incubation with SP (10 nM) at 4° C., NK1R immunoreactivity (NK1R-IR) and Gαq-IR were colocalized at the plasma membrane. After washing and warming to 37° C. for 15 min, NK1R-IR and Gαq-IR were co-localized with early endosomal antigen 1 (EEA1) (data not shown). Thus, SP activates this G protein complex by its dissociation and recruits Gαq to endosomes.
HEK293 cells were transfected with the following cDNAs: 1 μg NK1R-RLuc8 or 1 μg CLR-RLuc8+1 μg Myc-RAMP1+4 μg KRas-Venus, 4 μg Rab5a-Venus, 4 μg βarr1-YFP, or 4 μg βarr2-YFP; or 1 μg NK1R+0.5 μg Gαq-RLuc8+1 μg Gβ1+4 μg Gγ2-Venus; or 1 μg NK1R+0.5 μg Gαq-RLuc8+1 μg Gβ1+1 μg Gγ2+4 μg Rab5a-Venus. […] BRET ratios were determined using a microplate reader LUMIstar Omega (BMG LabTech) before and after challenge with SP (0.1-10 nM) or vehicle (dH2O).

NK1R, sequence (P14600 whole entry, the tested form may be a part): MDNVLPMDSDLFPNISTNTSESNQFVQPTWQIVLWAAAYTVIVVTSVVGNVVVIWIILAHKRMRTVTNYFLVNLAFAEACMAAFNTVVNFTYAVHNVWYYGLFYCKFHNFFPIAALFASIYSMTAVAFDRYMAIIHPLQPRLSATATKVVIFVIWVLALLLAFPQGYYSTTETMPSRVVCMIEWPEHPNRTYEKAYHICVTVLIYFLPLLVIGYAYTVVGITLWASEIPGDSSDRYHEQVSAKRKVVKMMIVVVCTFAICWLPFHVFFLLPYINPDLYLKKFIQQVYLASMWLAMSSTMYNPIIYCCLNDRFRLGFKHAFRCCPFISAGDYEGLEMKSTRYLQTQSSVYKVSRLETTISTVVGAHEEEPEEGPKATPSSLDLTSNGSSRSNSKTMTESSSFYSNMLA

Row | Molecule | time stable in human CSF [1] [h] | IC50 (NK1R) [nM] | stability after intrathecal injection to mice [2] | firing of action potentials [3] | Gαq-RLuc8/Gγ2-Venus BRET (Gαq) | Gαq-RLuc8/Rab5a-Venus BRET (Gαq)
1 | CC(C)C[C@H](NC(=O)[C@H](CC(C)C)NC(=O)[C@@H](Cc1c[nH]c2ccccc12)NC(=O)[C@H](Cc1ccccc1)NC(=O)[C@@H](Cc1c[nH]c2ccccc12)NC(=O)[C@H](CCC(N)=O)NC(=O)[C@H](CCC(N)=O)NC(=O)[C@@H]1CCCN1C(=O)[C@H](CCCCN)NC(=O)[C@@H]1CCCN1C(=O)[C@H](N)CCCN=C(N)N)C(N)=O [spantide, ^DArg-Pro-Lys-Pro-Gln-Gln-^DTrp-Phe-^DTrp-Leu-Leu-NH2] (H-[dR]PKPQQ[dW]F[dW]LL-NH2) | > 4 | 5.89 | extensively metabolized | – | – | –
2 | SP: substance P, NK1R agonist used as stimulus (RPKPQQFFGLM-NH2; ends and bridges not checked; UniProt P20366 58-68, looked up) | – | – | – | triggered a rapid onset firing of action potentials that was sustained after washout | decreased Gαq-RLuc8/Gγ2-Venus BRET | increased Gαq-RLuc8/Rab5a-Venus BRET
